Assay results as given in US10358446B2, “Bruton's tyrosine kinase inhibitors” (Zibo Biopolar Changsheng Pharmaceutical Co. Ltd., priority 2015, dated 2019).
pIC50: −log10 of the molar value.

Biological target: BTK (Homo sapiens (Human), UniProt Q06187)
Test: Btk kinase assay (HTRF)
Assay type: biochemical
Settings: [ATP]=80 μM, BTK=3.4 nM; read-out: BTK Inhibition
Protocol: Btk kinase activity was determined using a homogenous time resolved fluorescence (HTRF) methodology. Measurements were performed in a reaction volume of 15 μL using 384-well assay plates. Kinase enzyme, inhibitor, ATP and 1 μM peptide substrate were incubated in a reaction buffer compose of Hepes 50 mM (pH7.0), NaN3 0.02%, BSA 0.01%, Orthocanadate 0.1 mM. After one hour, the kinase reaction was quenched by the addition of […] antibody and XL-665 in 1× Detection buffer containing 60 mM EDTA (Cisbio), and the mixture was allowed to incubate for one hour. The HTRF signal was measured on a multimode plate reader (EnVision® Multilabel Reader, Perkin Elmer) with an excitation wavelength (λEx) of 330 nm and detection wavelengths (λEm) of 615 and 665 nrm. Activity was determined by the ratio of the fluorescence at 665 nm to that at 615 nm. For each compound, enzyme activity as measured at various concentrations of compound, Negative control reactions were performed in the absence of inhibitor in two replicates and eight no enzyme controls were used to determine baseline fluorescence levels. IC50s were obtained according to the equation: […] For BTK assay, [ATP]=80 μM, BTK=3.4 nM.

Chain of BTK (Q06187 whole entry, species assumed): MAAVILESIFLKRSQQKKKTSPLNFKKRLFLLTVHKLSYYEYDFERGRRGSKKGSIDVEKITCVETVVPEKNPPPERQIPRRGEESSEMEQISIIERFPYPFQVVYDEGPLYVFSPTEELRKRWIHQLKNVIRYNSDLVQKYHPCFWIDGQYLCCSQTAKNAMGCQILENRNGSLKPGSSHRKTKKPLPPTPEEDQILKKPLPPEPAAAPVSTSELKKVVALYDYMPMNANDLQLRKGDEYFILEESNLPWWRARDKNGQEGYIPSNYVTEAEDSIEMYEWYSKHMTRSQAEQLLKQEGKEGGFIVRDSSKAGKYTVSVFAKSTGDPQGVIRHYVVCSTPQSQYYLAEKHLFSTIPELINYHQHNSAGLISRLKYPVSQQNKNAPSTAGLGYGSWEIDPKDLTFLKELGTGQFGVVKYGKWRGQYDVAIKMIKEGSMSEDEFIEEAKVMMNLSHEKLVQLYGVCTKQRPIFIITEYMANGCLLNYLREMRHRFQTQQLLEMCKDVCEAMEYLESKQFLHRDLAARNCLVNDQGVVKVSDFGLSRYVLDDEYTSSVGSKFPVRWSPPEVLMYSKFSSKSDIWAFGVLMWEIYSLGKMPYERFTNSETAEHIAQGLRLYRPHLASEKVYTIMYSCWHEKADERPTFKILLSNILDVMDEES

C=CC(=O)N1CCC(n2c(=O)n(-c3ccc(Oc4cccc(C(F)(F)F)c4)c(Cl)c3)c3cnccc32)C1 (stereo not shown) [Example 6, 1-(1-acryloylpyrrolidin-3-yl)-3-(3-chloro-4-(3-(trifluoromethyl)phenoxy)phenyl)-1H-imidazo[4,5-c]pyridin-2(3H)-one]
pIC50: 7.00 to 8.00

C=CC(=O)Nc1cccc(-n2c(=O)n(-c3cccc(Oc4ccccc4)c3)c3cnccc32)c1 [Example 7, N-(3-(2-oxo-3-(3-phenoxyphenyl)-2,3-dihydro-1H-imidazo[4,5-c]pyridin-1-yl)phenyl)acrylamide]
pIC50: 7.00 to 8.00

C=CC(=O)N1CC[C@@H](n2c(=O)n(-c3ccc(Oc4cc(Cl)cc(OC)c4)cc3)c3cnccc32)C1 [Example 9, (R)-1-(1-acryloylpyrrolidin-3-yl)-3-(4-(3-chloro-5-methoxyphenoxy)phenyl)-1H-imidazo[4,5-c]pyridin-2(3H)-one]
pIC50: 7.00 to 8.00

C=CC(=O)N1CC[C@@H](n2c(=O)n(-c3ccc(Oc4cccc(C5CC5)c4)cc3)c3cnccc32)C1 [Example 10, (R)-1-(1-acryloylpyrrolidin-3-yl)-3-(4-(3-cyclopropylphenoxy)phenyl)-1H-imidazo[4,5-c]pyridin-2(3H)-one]
pIC50: 6.00 to 7.00

C=CC(=O)N1CC[C@@H](n2c(=S)n(-c3ccc(Oc4cccc(C)c4)cc3)c3cnccc32)C1 [Example 11, (R)-1-(3-(2-thioxo-3-(4-(m-tolyloxy)phenyl)-2,3-dihydro-1H-imidazo[4,5-c]pyridin-1-yl)pyrrolidin-1-yl)prop-2-en-1-one]
pIC50: 6.00 to 7.00

C=CC(=O)N1CCC[C@@H](n2c(=O)n(-c3ccc(Oc4ccccc4)c(F)c3)c3cnccc32)C1 [Example 12, (R)-1-(1-acryloylpiperidin-3-yl)-3-(3-fluoro-4-phenoxyphenyl)-1H-imidazo[4,5-c]pyridin-2(3H)-one]
pIC50: 7.00 to 8.00

C=CC(=O)N1CCC[C@@H](n2c(=O)n(-c3ccc(Oc4cccc(C)c4)cc3)c3cnccc32)C1 [Example 13, (R)-1-(1-acryloylpiperidin-3-yl)-3-(4-(m-tolyloxy)phenyl)-1H-imidazo[4,5-c]pyridin-2(3H)-one]
pIC50: 7.00 to 8.00

C=CC(=O)N1CCC[C@@H](n2c(=O)n(-c3ccc(Oc4cccc(OC(C)C)c4)cc3)c3cnccc32)C1 [Example 14, (R)-1-(1-acryloylpiperidin-3-yl)-3-(4-(3-isopropoxyphenoxy)phenyl)-1H-imidazo[4,5-c]pyridin-2(3H)-one]
pIC50: 7.00 to 8.00

C=CC(=O)N1CCC(Cn2c(=O)n(-c3ccc(Oc4ccccc4)cc3)c3cnccc32)CC1 [Example 15, 1-((1-acryloylpiperidin-4-yl)methyl)-3-(4-phenoxyphenyl)-1H-imidazo[4,5-c]pyridin-2(3H)-one]
pIC50: 6.00 to 7.00

C=CC(=O)N1CC[C@@H](n2c(=O)n(-c3cccc(Oc4ccc(C)cc4)c3)c3cnccc32)C1 [Example 16, (R)-1-(1-acryloylpyrrolidin-3-yl)-3-(3-(p-tolyloxy)phenyl)-1H-imidazo[4,5-c]pyridin-2(3H)-one]
pIC50: 7.00 to 8.00

C=CC(=O)N1CC[C@@H](n2c(=O)n(-c3cccc(Oc4ccc(OC)cc4)c3)c3cnccc32)C1 [Example 17, (R)-1-(1-acryloylpyrrolidin-3-yl)-3-(3-(4-methoxyphenoxy)phenyl)-1H-imidazo[4,5-c]pyridin-2(3H)-one]
pIC50: 6.00 to 7.00

O=C(/C=C/N1CCOCC1)N1CC[C@@H](n2c(=O)n(-c3ccc(Oc4ccccc4)c(Cl)c3)c3cnccc32)C1 [Example 18, (R,E)-3-(3-chloro-4-phenoxyphenyl)-1-(1-(3-morpholinoacryloyl)pyrolidin-3-yl)-1H-imidazo[4,5-c]-pyridin-2(3H)-one]
pIC50: 6.00 to 7.00

C=CC(=O)N1CC[C@@H](n2c(=O)n(-c3ccc(Oc4cccc(C)c4)c(Cl)c3)c3cnccc32)C1 [Example 19, (R)-1-(1-acryloylpyrrolidin-3-yl)-3-(3-chloro-4-(m-tolyloxy)phenyl)-1H-imidazo[4,5-c]pyridin-2(3H)-one]
pIC50: 7.00 to 8.00

C=CC(=O)N1CCCC1Cn1c(=O)n(-c2ccc(Oc3ccccc3)cc2)c2cnccc21 (stereo not shown) [Example 21, 1-((1-acryloylpyrrolidin-2-yl)methyl)-3-(4-phenoxyphenyl)-1H-imidazo[4,5-c]pyridin-2(3H)-one]
pIC50: 7.00 to 8.00

O=C(/C=C/c1ccccc1)N1CC[C@@H](n2c(=O)n(-c3ccc(Oc4ccccc4)c(Cl)c3)c3cnccc32)C1 [Example 22, (R,E)-3-(3-chloro-4-phenoxyphenyl)-1-(1-cinnamoylpyrrolidin-3-yl)-1H-imidazo[4,5-c]pyridin-2(3H)-one]
pIC50: ≤ 5.00

C=CS(=O)(=O)N1CC[C@@H](n2c(=O)n(-c3ccc(Oc4ccccc4)c(Cl)c3)c3cnccc32)C1 [Example 23, (R)-3-(3-chloro-4-phenoxyphenyl)-1-(1-(vinylsulfonyl)pyrrolidin-3-yl)-1H-imidazo[4,5-c]pyridin-2(3H)-one]
pIC50: 7.00 to 8.00

C=CC(=O)N1CC[C@@H](n2c(=O)n(-c3ccc(Oc4cccc(OCC)c4)cc3)c3cnccc32)C1 [Example 24, (R)-1-(1-acryloylpyrrolidin-3-yl)-3-(4-(3-ethoxyphenoxy)phenyl)-1H-imidazo[4,5-c]pyridin-2(3H)-one]
pIC50: 7.00 to 8.00

C=CC(=O)N1CC[C@@H](n2c(=O)n(-c3ccc(Oc4cccc(OC(C)C)c4)cc3)c3cnccc32)C1 [Example 25, (R)-1-(1-acryloylpyrrolidin-3-yl)-3-(4-(3-isopropoxyphenoxy)phenyl)-1H-imidazo[4,5-c]pyridin-2(3H)-one]
pIC50: ≥ 8.00

C=CC(=O)Nc1cccc(-n2c(=O)n(-c3ccc(Oc4ccccc4)c(C)c3)c3cnccc32)c1 [Example 27, N-(3-(3-(3-methyl-4-phenoxyphenyl)-2-oxo-2,3-dihydro-1H-imidazo [4,5-c]pyridin-1-yl)phenyl)acrylamide]
pIC50: 5.00 to 6.00

C=C(C)C(=O)N1CC[C@@H](n2c(=O)n(-c3ccc(Oc4ccccc4)cc3)c3cnccc32)C1 [Example 28, (R)-1-(1-methacryloylpyrrolidin-3-yl)-3-(4-phenoxyphenyl)-1H-imidazo[4,5-c]pyridin-2(3H)-one]
pIC50: 5.00 to 6.00

O=C(/C=C/c1ccccc1)N1CC[C@@H](n2c(=O)n(-c3ccc(Oc4ccccc4)cc3)c3cnccc32)C1 [Example 29, (R,E)-1-(1-cinnamoylpyrrolidin-3-yl)-3-(4-phenoxyphenyl)-1H-imidazo[4,5-c]pyridin-2(3H)-one]
pIC50: ≤ 5.00

C=CC(=O)N1CCC(n2c(=O)n(-c3ccc(Oc4ccccc4)cc3)c3cnccc32)CC1 [Example 30, 1-(1-acryloylpiperidin-4-yl)-3-(4-phenoxyphenyl)-1H-imidazo[4,5-c]pyridin-2(3H)-one]
pIC50: ≤ 5.00

CC(=O)N1CC[C@@H](n2c(=O)n(-c3ccc(Oc4ccccc4)cc3)c3cnccc32)C1 [Example 32, (R)-1-(1-acetylpyrrolidin-3-yl)-3-(4-phenoxyphenyl)-1H-imidazo[4,5-c]pyridin-2(3H)-one]
pIC50: ≤ 5.00

C=CC(=O)N1CC[C@@H](n2c(=O)n(-c3ccc(Oc4ccccc4)cc3)c3cnccc32)C1 [Example 33, (R)-1-(1-acryloylpyrrolidin-3-yl)-3-(4-phenoxyphenyl)-1H-imidazo[4,5-c]pyridin-2(3H)-one]
pIC50: 7.00 to 8.00

CC#CC(=O)N1CC[C@@H](n2c(=O)n(-c3ccc(Oc4ccccc4)cc3)c3cnccc32)C1 [Example 34, (R)-1-(1-(but-2-ynoyl)pyrrolidin-3-yl)-3-(4-phenoxyphenyl)-1H-imidazo [4,5-c]pyridin-2(3H)-one]
pIC50: ≤ 5.00

C=CC(=O)N1CC[C@@H](n2c(=O)n(-c3ccc(Oc4ccc(OC)cc4)cc3)c3cnccc32)C1 [Example 35, (R)-1-(1-acryloylpyrrolidin-3-yl)-3-(4-(4-methoxyphenoxy)phenyl)-1H-imidazo[4,5-c]pyridin-2(3H)-one]
pIC50: 7.00 to 8.00

C=CC(=O)N1CC[C@@H](n2c(=O)n(-c3ccc(Oc4ccc(C(F)(F)F)cc4)cc3)c3cnccc32)C1 [Example 36, (R)-1-(1-acryloylpyrrolidin-3-yl)-3-(4-(4-(trifluoromethyl)phenoxy)phenyl)-1H-imidazo[4,5-c]pyridin-2(3H)-one]
pIC50: 6.00 to 7.00

C=CC(=O)N1CC[C@@H](n2c(=O)n(-c3ccc(Oc4ccc(Cl)c(Cl)c4)cc3)c3cnccc32)C1 [Example 37, (R)-1-(1-acryloylpyrrolidin-3-yl)-3-(4-(3,4-dichlorophenoxy)phenyl)-1H-imidazo[4,5-c]pyridin-2(3H)-one]
pIC50: 6.00 to 7.00

C=CC(=O)N1CC[C@@H](n2c(=O)n(-c3ccc(Oc4cc(F)cc(F)c4)c(Cl)c3)c3cnccc32)C1 [Example 39, (R)-1-(1-acryloylpyrrolidin-3-yl)-3-(3-chloro-4-(3,5-difluorophenoxy)phenyl)-1H-imidazo[4,5-c]pyridin-2(3H)-one]
pIC50: 7.00 to 8.00

C=CC(=O)N1CC[C@@H](n2c(=O)n(-c3ccc(Oc4ccc(OC)c(OC)c4)cc3)c3cnccc32)C1 [Example 40, (R)-1-(1-acryloylpyrrolidin-3-yl)-3-(4-(3,4-dimethoxyphenoxy)phenyl)-1H-imidazo[4,5-c]pyridin-2(3H)-one]
pIC50: 7.00 to 8.00

C=CC(=O)N1CC[C@@H](n2c(=O)n(-c3ccc(Oc4cccc(F)c4)c(Cl)c3)c3cnccc32)C1 [Example 41, (R)-1-(1-acryloylpyrrolidin-3-yl)-3-(3-chloro-4-(3-fluorophenoxy)phenyl)-1H-imidazo[4,5-c]pyridin-2(3H)-one]
pIC50: ≥ 8.00
